Assay results as given in US5843941A, “Ras farnesyl transferase inhibitors” (Genentech, Inc., priority 1994, dated 1998).

Experiments:
Rab GG transferase = target: T1, Rab GG transferase (Rattus norvegicus, UniProt Q08602+Q08603); experiment: Inhibition of Rab GG transferase; type: biochemical; settings: FIG. 1C; Rab1A substrate; read-out: IC0.5 Rab GG transferase
T1 construct: purified Components A and B of Rab GG transferase; from tissue
T1 sequence (Q08602 1-567): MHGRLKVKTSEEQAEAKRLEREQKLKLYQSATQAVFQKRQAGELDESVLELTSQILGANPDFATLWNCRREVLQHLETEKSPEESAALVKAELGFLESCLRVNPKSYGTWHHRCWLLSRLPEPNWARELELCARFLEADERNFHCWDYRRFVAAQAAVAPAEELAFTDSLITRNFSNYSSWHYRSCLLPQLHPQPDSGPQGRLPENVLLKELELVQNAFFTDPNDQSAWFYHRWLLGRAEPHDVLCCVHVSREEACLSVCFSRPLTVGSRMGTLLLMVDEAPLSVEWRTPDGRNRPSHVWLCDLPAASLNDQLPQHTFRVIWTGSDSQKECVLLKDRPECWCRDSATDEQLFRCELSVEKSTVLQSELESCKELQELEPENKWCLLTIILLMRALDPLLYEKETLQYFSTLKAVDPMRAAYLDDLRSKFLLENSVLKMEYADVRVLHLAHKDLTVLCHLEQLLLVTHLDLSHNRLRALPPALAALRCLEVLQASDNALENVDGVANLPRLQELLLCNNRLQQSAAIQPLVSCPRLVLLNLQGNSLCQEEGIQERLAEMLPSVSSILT
T1 sequence (Q08603 1-331): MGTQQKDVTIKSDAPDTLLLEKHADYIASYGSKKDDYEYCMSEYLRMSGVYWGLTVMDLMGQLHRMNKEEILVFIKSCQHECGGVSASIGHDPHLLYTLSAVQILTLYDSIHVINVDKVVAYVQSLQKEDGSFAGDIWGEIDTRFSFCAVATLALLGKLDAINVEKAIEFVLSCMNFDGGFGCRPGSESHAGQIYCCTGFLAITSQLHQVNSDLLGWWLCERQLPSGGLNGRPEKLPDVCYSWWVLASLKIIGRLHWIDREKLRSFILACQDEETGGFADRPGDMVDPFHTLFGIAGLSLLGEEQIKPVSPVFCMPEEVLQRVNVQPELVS

[1] = test system: untransformed rat-1 fibroblasts; experiment: Changes in morphology of untransformed cells; type: cell-based; settings: FIG. 6E and F
Procedure: Compound 27A (denoted as BG269A in the figure) and compound 27B (denoted as BG269B in the figure) were added at 250 μM to test whether these compounds would induce reversion to a more normal phenotype as had been previously shown with microinjection of anti-Ras antibodies (see Feramisco, J. R. et al Nature 314, 639 (1985)). The H-ras transformed cells, denoted as rat 2.2 cells, were generated by transfection of rat-1 fibroblasts as described (see Seeburg, P. H., Colby, W. W., Capon, D. J., Goeddel, D. V., and Levinson, A. D. Nature 312,71 (1984)). Cells that overgrew the monolayer were extracted and plated onto agar to obtain a cell line displaying a fully transformed phenotype. Untransformed rat-1 fibroblasts and src-transformed rat-1 fibroblasts were also treated. The src-transformed cells were generated by co-transfection of rat-1 fibroblasts with pSV3.Neo.src, a vector containing the gene for src as well as the gene that confers G418 resistance, both under control of SV40 early promoters. G418-resistant cell clones that diplayed a transformed phenotype were used to generate the cell line. On day 0, cells were plated in monolayer culture at 3×10^3 cells per well (24-well plates) in 1 ml DMEM supplemented with 10% FCS, 100 U/ml penicillin, 10 μg/ml streptomycin, 2% DMSO, and 0.5 mM DTT with and without 200 μM inhibitor. On day 3, the cells were refed with the same medium. […]

CAAX farnesyltransferase = CAAX farnesyltransferase (Rattus norvegicus, UniProt Q02293+Q04631); experiment: In vitro inhibition of CAAX farnesyltransferase; type: biochemical; parameters: purified to homogeneity from rat brain homogenates; from tissue; host or cells: rat brain; alternatively recombinant enzyme from a baculovirus expression system; settings: FIG. 1A
Procedure, shortened: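 Native or recombinant (baculovirus-infected cells, Q-Sepharose purified) farnesyltransferase incubated 30 min at 37 °C. [3H]farnesyl transfer to p21H-ras measured by SDS/trichloroacetic acid precipitation, nitrocellulose filtration and scintillation counting.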

[2] = test system: H-ras(Val12)-transformed rat-1 fibroblasts (rat 2.2 cells); experiment: Changes in morphology of H-ras-transformed cells; type: cell-based; settings: 5 days
Procedure: Compound 27A (denoted as BG269A in the figure) and compound 27B (denoted as BG269B in the figure) were added at 250 μM to test whether these compounds would induce reversion to a more normal phenotype as had been previously shown with microinjection of anti-Ras antibodies (see Feramisco, J. R. et al Nature 314, 639 (1985)). The H-ras transformed cells, denoted as rat 2.2 cells, were generated by transfection of rat-1 fibroblasts as described (see Seeburg, P. H., Colby, W. W., Capon, D. J., Goeddel, D. V., and Levinson, A. D. Nature 312,71 (1984)). Cells that overgrew the monolayer were extracted and plated onto agar to obtain a cell line displaying a fully transformed phenotype. Untransformed rat-1 fibroblasts and src-transformed rat-1 fibroblasts were also treated. The src-transformed cells were generated by co-transfection of rat-1 fibroblasts with pSV3.Neo.src, a vector containing the gene for src as well as the gene that confers G418 resistance, both under control of SV40 early promoters. G418-resistant cell clones that diplayed a transformed phenotype were used to generate the cell line. On day 0, cells were plated in monolayer culture at 3×10^3 cells per well (24-well plates) in 1 ml DMEM supplemented with 10% FCS, 100 U/ml penicillin, 10 μg/ml streptomycin, 2% DMSO, and 0.5 mM DTT with and without 200 μM inhibitor. On day 3, the cells were refed with the same medium. On day 5, the cells were photographed under contrast at a magnification of 100X. […] This change in morphology is remarkably similar to that seen following injection of anti-ras antibodies into ras-transformed cells (see Feramisco, J. R. et al Nature 314, 639 (1985)). Rat-1 fibroblasts transformed with the src oncogene also grew in a multilayered pattern (FIG. 6C), but this was not affected by compound 27A or compound 27B (FIG. 6D).

Chain of CAAX farnesyltransferase (Q02293 whole entry, one chain of several): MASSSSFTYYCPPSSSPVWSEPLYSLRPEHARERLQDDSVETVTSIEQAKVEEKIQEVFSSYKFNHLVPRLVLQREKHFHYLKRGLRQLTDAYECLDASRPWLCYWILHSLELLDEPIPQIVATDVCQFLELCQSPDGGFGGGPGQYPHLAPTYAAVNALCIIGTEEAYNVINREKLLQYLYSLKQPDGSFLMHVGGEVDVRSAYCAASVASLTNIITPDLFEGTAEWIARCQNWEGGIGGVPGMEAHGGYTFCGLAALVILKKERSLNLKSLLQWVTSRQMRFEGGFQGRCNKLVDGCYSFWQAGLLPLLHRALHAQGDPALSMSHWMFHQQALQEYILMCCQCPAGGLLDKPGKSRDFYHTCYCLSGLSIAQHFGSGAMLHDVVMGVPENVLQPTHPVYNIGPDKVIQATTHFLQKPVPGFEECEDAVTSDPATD

Question: How did the IC50 (Rab GG transferase) turn out when `CSCC[C@H](NC(=O)CN1C(=O)C(N(C)C(=O)[C@@H](N)CS)N=C(c2ccccc2)c2ccccc21)C(=O)O` (single isomer, unassigned) [27B] was run?
Answer: Its IC50 is 5500 nM.

Question: What about the “effect on morphology of untransformed cells” value [1] of the same molecule?
Answer: Its value is “no apparent effect on the morphology of untransformed rat-1 fibroblasts”.

Question: And the IC50 (CAAX farnesyltransferase; recombinant enzyme, read-out: concentration inhibiting recombinant ras CAAX farnesyltransferase by 50%)?
Answer: The IC50 was 0.26 nM.

Question: And the “fold lower inhibitory concentration than tetrapeptide CVFM” value (CAAX farnesyltransferase; vs CVFM)?
Answer: The value was ~200 fold.

Question: What about the “effect on transformed phenotype (morphology)” value ([2]; FIG. 6A/6B) of the same molecule?
Answer: Its value is “reversed the transformed phenotype”.

Question: And the “effect on cell density” value ([2]; FIG. 6B)?
Answer: The value was “grew to lower cell density”.
